# “And” between values parts separate entries of the source, which are not always exact repeats. Equal values may be shown once.
# Assay: Repeated-treatment efficacy for removing an intravenous dose of 238Pu (excretion, tissue retention, clinical observations), female and male arms;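 on % Recovered Dose ART: abdominal tissue remainder incl GI tract reproductive organs spleen bladder and fat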
# Format: in vivo, Swiss-Webster mice
# Details: listed as 3,4,3-LI(1,2-HOPO); for % Recovered Dose Kidney / % Recovered Dose Liver / % Recovered Dose SKEL / % Recovered Dose SOFT / % Recovered Dose Total Feces / % Recovered Dose ART / % Recovered Dose Combined Body / % Recovered Dose Combined Excreta / % Recovered Dose Total Urine / % Recovered Dose GI Tract / % Recovered Dose Soft Tissue / % Recovered Dose Total Bone: male animals
# Description: The objective of this study was to characterize the efficacy of 3,4,3-L1(1,2-HOPO) at enhancing elimination from an internal plutonium burden in female and male Swiss-Webster mice administered a soluble citrate complex of ^238Pu and treated multiple times, starting at 24 hours after the exposure. Efficacy was evaluated by comparing the tissue contents, urinary and fecal excretions of ^238Pu in treated animals versus untreated animals.
# The medical countermeasure 3,4,3-L1(1,2-HOPO) was administered parenterally (ip) or orally (po) via consecutive injections or gavages (six daily or twelve twice daily) starting at 24 hours post contamination at the following four selected doses: 30 μmol/kg ip, 150 μmol/kg po, 300 μmol/kg po, and 600 μmol/kg po (equivalent to respective approximate human doses range of […], using the accepted conversion system of mouse doses into human equivalent doses—HED—based on body surface area). Oral doses also included the permeability enhancer selected during formulation development work.
# • Challenge isotope: ^238Pu • Challenge dose: 25 nCi (i.e., approximately 0.8 μCi/kg) • Route of contamination: Intravenous (iv) tail-vein • Route of treatment: Intraperitoneal Injection (ip) or Oral (po) • Frequency of treatment: Multiple (once- or twice-daily for 6 days) doses, starting 24 hr postcontamination • Treatment dose calculation: Dose calculations (mg/kg or μmol/kg) for the decorporation agent were based on the individual body weight measured after contamination. • Study Duration: 11 days, in-life
# c. […] Test article and control dose formulations were prepared within 1 day of dose administration, by weighing out the appropriate amount of test article, dispersing in vehicle. For ip solutions, the test article was used alone, while for oral suspensions, a mixture of test article and excipient (90:10, w:w) was used. The pH was adjusted to 7.0-7.4 for ip administration and 5.0-5.5 for oral administration with sterile NaOH. Dose formulations were prepared at room temperature and filter-sterilized. • Storage: 2-8° C.; refrigerated; protected from light. • Characterization: The concentration of each test article formulation was verified by high-performance liquid chromatography-mass spectrometry. • Test Article Handling: Test, reference, and control article formulations were handled with the use of eye protection, gloves, and a protective laboratory coat. • Correct Dose Assurance: The test article was weighed with calibrated balances. The administration of each dose formulation was properly documented, and the amount administered to each animal recorded.
# e. Experimental Procedures (In-Life Evaluations and Euthanasia) • Contamination: Single administration by intravenous (iv) tail-vein injection (0.2 mL injection volume) under isoflurane anesthesia. Three standard 0.2 mL injections were performed into polyethylene bottles and pre-loaded with aliquots of concentrated nitric acid on each injection day. Six female and six male mice were culled for necropsy 1 hr post-contamination and were used as standards. A11 standards were processed and counted together with the final samples to allow verification of the contamination dose. • Dose Administration: Single administration by intraperitoneal injection (ip) or oral gavage (po) under isoflurane anesthesia. • Mortality/Morbidity: Assessed at least once daily. • Clinical Observations: Recorded once daily (4 hr post-dose on day of treatment), or more often as clinical signs warranted. […]
# [1] = Day-11 necropsy, animal group I
# [2] = Day-11 necropsy, animal group L
# [3] = Day-11 necropsy, animal group M
# [4] = male arm table, Day 11 necropsy, animal group I
# [5] = male arm table, Day 11 necropsy, animal group L
# [6] = male arm table, Day 11 necropsy, animal group M
smiles,measurement,setting,value
"O=C(NCCCN(CCCCN(CCCNC(=O)c1cccc(=O)n1O)C(=O)c1cccc(=O)n1O)C(=O)c1cccc(=O)n1O)c1cccc(=O)n1O [3,4,3-L1(1,2-HOPO)]",% Recovered Dose Kidney,"Day-7 necropsy, animal group C",0.22% and 0.15% and 0.21% and 0.17%
same,% Recovered Dose Liver,"Day-7 necropsy, animal group C",15.72% and 12.80% and 16.24% and 16.85%
same,% Recovered Dose SKEL,"Day-7 necropsy, animal group C",24.75% and 21.49% and 23.68% and 17.13%
same,% Recovered Dose SOFT,"Day-7 necropsy, animal group C",2.28% and 2.12% and 3.24% and 2.82%
same,% Recovered Dose Total Feces,"Day-7 necropsy, animal group C",34.40% and 32.67% and 50.44% and 35.35%
same,% Recovered Dose ART,"Day-7 necropsy, animal group E",1.02% and 1.34% and 1.21% and 1.33%
same,% Recovered Dose Combined Body,"Day-7 necropsy, animal group E",30.49% and 40.14% and 34.97% and 37.95%
same,% Recovered Dose Combined Excreta,"Day-7 necropsy, animal group E",69.51% and 59.86% and 65.03% and 62.05%
same,% Recovered Dose Kidney,"Day-7 necropsy, animal group E",0.14% and 0.21% and 0.13% and 0.20%
same,% Recovered Dose Liver,"Day-7 necropsy, animal group E",9.72% and 15.67% and 11.76% and 13.58%
same,% Recovered Dose SKEL,"Day-7 necropsy, animal group E",17.72% and 20.95% and 20.71% and 20.84%
same,% Recovered Dose SOFT,"Day-7 necropsy, animal group E",1.89% and 1.96% and 1.16% and 2.00%
same,% Recovered Dose Total Feces,"Day-7 necropsy, animal group E",40.90% and 40.04% and 39.60% and 39.91%
same,% Recovered Dose Total Urine,"Day-7 necropsy, animal group E",28.61% and 19.82% and 25.43% and 22.13%
same,% Recovered Dose ART,"Day-7 necropsy, animal group F",1.03% and 1.92% and 2.25% and 1.33%
same,% Recovered Dose Combined Body,"Day-7 necropsy, animal group F",30.37% and 39.36% and 36.59% and 31.04%
same,% Recovered Dose Combined Excreta,"Day-7 necropsy, animal group F",69.63% and 60.64% and 63.41% and 68.96%
same,% Recovered Dose Kidney,"Day-7 necropsy, animal group F",0.17% and 0.21% and 0.42%
same,% Recovered Dose Liver,"Day-7 necropsy, animal group F",7.14% and 17.14% and 15.20% and 10.27%
same,% Recovered Dose SKEL,"Day-7 necropsy, animal group F",20.00% and 18.02% and 16.63% and 16.58%
same,% Recovered Dose SOFT,"Day-7 necropsy, animal group F",2.03% and 2.08% and 2.10% and 2.66%
same,% Recovered Dose Total Feces,"Day-7 necropsy, animal group F",42.75% and 36.05% and 44.44% and 38.86%
same,% Recovered Dose Total Urine,"Day-7 necropsy, animal group F",26.88% and 24.59% and 18.97% and 30.09%
same,% Recovered Dose Combined Body,[1],15.90% and 20.53% and 19.46% and 22.16% and 16.51% and 22.02% and 21.03% and 23.25%
same,% Recovered Dose Combined Excreta,[1],84.10% and 79.47% and 80.54% and 77.84% and 83.49% and 77.98% and 78.97% and 76.75%
same,% Recovered Dose GI Tract,[1],0.43% and 0.47% and 0.44% and 0.49% and 0.64% and 0.58% and 0.71%
same,% Recovered Dose Kidney,[1],0.08% and 0.11% and 0.10% and 0.14% and 0.13% and 0.16%
same,% Recovered Dose Liver,[1],2.60% and 1.91% and 2.22% and 2.29% and 3.02% and 2.09% and 2.92% and 2.34%
same,% Recovered Dose Soft Tissue,[1],1.04% and 0.98% and 0.83% and 1.42% and 1.37% and 1.22% and 1.20%
same,% Recovered Dose Total Bone,[1],11.74% and 17.07% and 15.87% and 17.81% and 11.38% and 18.21% and 16.06% and 19.05%
same,% Recovered Dose Total Feces,[1],54.04% and 60.47% and 51.78% and 38.48% and 49.18% and 43.78% and 44.59% and 43.58%
same,% Recovered Dose Combined Body,[2],38.48% and 43.87% and 28.88% and 28.44% and 32.53% and 32.57% and 26.76% and 36.08%
same,% Recovered Dose Combined Excreta,[2],61.52% and 56.13% and 71.12% and 71.56% and 64.47% and 67.43% and 73.24% and 63.92%
same,% Recovered Dose GI Tract,[2],0.99% and 1.04% and 1.13% and 1.03% and 1.21% and 0.97% and 0.90% and 0.93%
same,% Recovered Dose Kidney,[2],0.10% and 0.15% and 0.19% and 0.14%
same,% Recovered Dose Soft Tissue,[2],2.91% and 2.09% and 2.06% and 2.29% and 2.57% and 2.02% and 1.97% and 1.69%
same,% Recovered Dose Total Bone,[2],25.77% and 24.60% and 16.37% and 19.43% and 22.08% and 18.56% and 15.85% and 25.23%
same,% Recovered Dose Total Feces,[2],41.70% and 35.40% and 43.87% and 46.74% and 38.04% and 37.30% and 46.07% and 33.53%
same,% Recovered Dose Total Urine,[2],19.82% and 20.73% and 27.24% and 24.82% and 26.43% and 30.12% and 27.17% and 30.39%
same,% Recovered Dose Combined Body,[3],20.04% and 21.39% and 28.64% and 34.45% and 33.00% and 30.60% and 25.58% and 27.62%
same,% Recovered Dose Combined Excreta,[3],79.96% and 78.61% and 71.36% and 65.55% and 67.00% and 69.40% and 74.42% and 72.38%
same,% Recovered Dose GI Tract,[3],0.61% and 0.50% and 0.89% and 0.48% and 0.99% and 1.00% and 0.73% and 0.76%
same,% Recovered Dose Kidney,[3],0.08% and 0.17% and 0.28% and 0.16% and 0.25% and 0.24% and 0.20% and 0.13%
same,% Recovered Dose Liver,[3],3.86% and 3.49% and 8.37% and 6.17% and 12.45% and 9.96% and 3.83% and 6.08%
same,% Recovered Dose Soft Tissue,[3],1.50% and 1.55% and 1.52% and 2.24% and 2.53% and 2.16% and 2.01% and 1.95%
same,% Recovered Dose Total Bone,[3],13.99% and 15.68% and 17.58% and 25.41% and 16.78% and 17.24% and 18.80% and 18.71%
same,% Recovered Dose Total Feces,[3],53.86% and 46.68% and 46.45% and 35.88% and 40.81% and 59.45% and 36.72% and 39.43%
same,"% Recovered Dose Urine per Day, Day 2",[4],3.96% and 5.51% and 4.41% and 4.63% and 4.05% and 5.30% and 3.86% and 5.05%
same,"% Recovered Dose Urine per Day, Day 3",[4],1.65% and 1.23% and 3.48% and 2.00% and 1.41% and 1.46% and 1.93%
same,"% Recovered Dose Urine per Day, Day 4",[4],0.77% and 0.85% and 0.98% and 1.08% and 0.65% and 0.92% and 0.89% and 0.93%
same,"% Recovered Dose Urine per Day, Day 5",[4],0.94% and 0.87% and 0.59% and 0.63% and 0.79% and 0.76% and 0.28% and 1.05%
same,"% Recovered Dose Urine per Day, Day 6",[4],0.65% and 0.41% and 0.44% and 0.32% and 0.35% and 0.48% and 0.51% and 0.55%
same,"% Recovered Dose Urine per Day, Day 7",[4],0.87% and 1.16% and 0.64% and 0.59% and 0.75% and 0.99% and 1.27%
same,"% Recovered Dose Urine per Day, Day 8",[4],0.32% and 0.70% and 0.71% and 0.52% and 0.77% and 0.79% and 0.51%
same,"% Recovered Dose Urine per Day, Day 9",[4],0.20% and 0.51% and 0.73% and 0.48% and 0.39% and 0.60% and 0.63%
same,"% Recovered Dose Urine per Day, Day 10",[4],0.58% and 0.74% and 0.92% and 0.42% and 0.40% and 0.38% and 0.41%
same,"% Recovered Dose Urine per Day, Day 11",[4],0.39% and 0.44% and 0.55% and 0.31% and 0.43% and 0.00% and 0.71%
same,"% Recovered Dose Urine per Day, Day 1",[5],12.59% and 16.03% and 21.48% and 17.40% and 21.11% and 22.45% and 21.35% and 20.51%
same,"% Recovered Dose Urine per Day, Day 2",[5],2.90% and 1.60% and 1.70% and 2.41% and 1.15% and 2.95% and 2.14% and 3.00%
same,"% Recovered Dose Urine per Day, Day 3",[5],1.04% and 0.84% and 1.21% and 0.62% and 1.08% and 1.06% and 0.54% and 1.49%
same,"% Recovered Dose Urine per Day, Day 4",[5],0.50% and 0.38% and 0.59% and 0.77% and 0.45% and 0.81% and 0.67% and 1.28%
same,"% Recovered Dose Urine per Day, Day 5",[5],0.64% and 0.28% and 0.60% and 0.52% and 0.67% and 0.50% and 0.69%
same,"% Recovered Dose Urine per Day, Day 6",[5],0.60% and 0.06% and 0.37% and 0.49% and 0.33% and 0.48% and 0.43%
same,"% Recovered Dose Urine per Day, Day 7",[5],0.61% and 0.22% and 0.72% and 1.23% and 0.46% and 0.44% and 0.51% and 0.75%
same,"% Recovered Dose Urine per Day, Day 8",[5],0.30% and 0.16% and 0.05% and 0.55% and 0.60% and 0.62%
same,"% Recovered Dose Urine per Day, Day 9",[5],0.21% and 0.30% and 0.20% and 0.22% and 0.55% and 0.27% and 0.25% and 0.67%
same,"% Recovered Dose Urine per Day, Day 10",[5],0.24% and 0.45% and 0.12% and 0.20% and 0.21% and 0.30% and 0.34% and 0.63%
same,"% Recovered Dose Urine per Day, Day 11",[5],0.20% and 0.41% and 0.40% and 0.14% and 0.18% and 0.34% and 0.31%
same,"% Recovered Dose Urine per Day, Day 2",[6],2.27% and 2.99% and 2.82% and 2.73% and 2.07% and 4.97% and 3.05%
same,"% Recovered Dose Urine per Day, Day 3",[6],0.81% and 1.49% and 1.40% and 1.64% and 1.14% and 1.43% and 1.07% and 1.00%
same,"% Recovered Dose Urine per Day, Day 4",[6],0.47% and 0.64% and 0.77% and 0.68% and 0.62% and 0.31% and 0.58% and 0.72%
